In assay [1] the test system is HUVEC. Nature of the assay: Angiogenic activity against HUVEC assessed as organization of cells in a capillary like structure at 0.1 uM after 4 hrs. It counts as functional, cell-based. As to conditions: Homo sapiens.
Assay [2] has as its system HUVEC. The assay is described as follows: Induction of apoptosis in HUVEC assessed as down-regulation of Bcl2 protein level at 5 uM after 0.5 hr by Western blot analysis. The assay is classed as functional, cell-based. As to conditions: Homo sapiens. (Immunoblotting shows a protein as a band on a membrane.)
In assay [3] the test system is HUVEC. The assay is described as follows: Angiogenic activity against HUVEC assessed as organization of cells in a capillary like structure at 0.25 uM after 4 hrs. As to conditions: Homo sapiens. The assay is classed as functional, cell-based.
Assay [4] relates to HUVEC. Nature of the assay: Induction of apoptosis in HUVEC assessed as procaspase3 activation at 5 uM after 4 hrs by Western blot analysis. The assay is classed as functional, cell-based. The conditions noted are these: Homo sapiens.
Assay [5] deals with HUVEC. The assay is described as follows: Induction of apoptosis in HUVEC assessed as cytochrome C release at 5 uM after 4 hrs by Western blot analysis. The assay is classed as functional, cell-based. As to conditions: Homo sapiens.
Assay [6] deals with HUVEC. The assay is described as follows: Induction of apoptosis in HUVEC assessed as procaspase3 activation at 0.25 uM after 4 hrs by Western blot analysis. It counts as functional, cell-based. As to conditions: Homo sapiens.
The test system of assay [7] is HUVEC. The assay is described as follows: Cytotoxicity against HUVEC at 0.15 uM after 72 hrs by trypan blue dye exclusion test relative to control. It counts as functional, Homo sapiens.
In assay [8] the test system is HUVEC. Nature of the assay: Induction of apoptosis in HUVEC assessed as cytochrome C release at 5 uM after 24 hrs by Western blot analysis. The conditions noted are these: Homo sapiens. It counts as functional, cell-based.
Assay [9] concerns HUVEC. Nature of the assay: Induction of apoptosis in HUVEC assessed as effect on bax protein level after 1 hr by Western blot analysis. As to conditions: Homo sapiens. It counts as functional, cell-based.
The test system of assay [10] is HUVEC. The assay is described as follows: Cytotoxicity against HUVEC at 0.25 uM after 72 hrs by trypan blue dye exclusion test relative to control. It counts as functional, Homo sapiens.
Assay [11] has as its system HUVEC. The assay is described as follows: Cytotoxicity against HUVEC at 0.5 uM after 72 hrs by trypan blue dye exclusion test relative to control. The assay is classed as functional, Homo sapiens.
The test system of assay [12] is HUVEC. Nature of the assay: Cytotoxicity against HUVEC at 0.35 uM after 72 hrs by trypan blue dye exclusion test relative to control. It counts as functional, Homo sapiens.
Assay [13] relates to HUVEC. The assay is described as follows: Antiangiogenic activity against HUVEC assessed as inhibition of capillary tube organization at 0.5 uM after 4 hrs. It counts as functional, cell-based. As to conditions: Homo sapiens.
The test system of assay [14] is HUVEC. Nature of the assay: Induction of apoptosis in HUVEC assessed as procaspase3 activation at 5 uM after 24 hrs by Western blot analysis. As to conditions: Homo sapiens. It counts as functional, cell-based.
For assay [15], the system named is HUVEC. The assay is described as follows: Cytotoxicity against HUVEC assessed as change in cell number at 25 uM after 72 hrs by trypan blue dye exclusion test. As to conditions: Homo sapiens. The assay is classed as functional, cell-based.
The subject of assay [16] is HUVEC. The assay is described as follows: Cytotoxicity against HUVEC at 5 uM after 6 hrs by Trypan blue dye exclusion test. It counts as functional, Homo sapiens.
Assay [17] has as its system HUVEC. Nature of the assay: Antiangiogenic activity in HUVEC assessed as decrease in cell migration at 0.25 uM after 4 hrs in the presence of FGF2 relative to control. The assay is classed as functional, cell-based. The conditions noted are these: Homo sapiens.

Active and inactive are the calls of the source. The rule behind the calls is not given here.

Turning to `CC(C)=CCC[C@](C)(O)[C@@H]1CC=C(C)CC1` [LEVOMENOL], the outcome with HUVEC [1], in the assay with HUVEC [2], in the assay with HUVEC [3], with HUVEC [4], in the assay on HUVEC [5] and in the assay with HUVEC [8] was Active. In addition, the result in the assay on HUVEC [13], with HUVEC [14] and with HUVEC [17] was Active. Besides, the result in the assay with HUVEC [6], in the assay with HUVEC [9] and in the assay on HUVEC [15] was inactive. For the same compound, the Activity in the assay on HUVEC [7] is listed as 65%; in the assay on HUVEC [10], 78%; in the assay with HUVEC [11] it was 90%; in the assay on HUVEC [12] it was 82%; in the assay with HUVEC [16], >60%.

(Values after ChEMBL document CHEMBL1157109, “Differentiating and apoptotic dose-dependent effects in (-)-alpha-bisabolol-treated human endothelial cells” (2010).)
